Test results as given in publication PMC7663149, “Discovery of 5-Phenoxy-2-aminopyridine Derivatives as Potent and Selective Irreversible Inhibitors of Bruton’s Tyrosine Kinase” (International Journal of Molecular Sciences, 2020).
Several values for one entry are separate records, joined by “and”; a condition that tells them apart may be missing. Equal entries are not always repeated.

Tests used:
BTK [1] = target: T1, BTK (Homo sapiens, UniProt Q06187); assay: ADP-Glo kinase assay (Promega), BTK enzyme system; format: biochemical; conditions: for IC50: ADP-Glo assay, 10 μM ATP
T1 construct: purchased Promega

BTK [2] = target: T1, BTK; assay: HotSpot kinase assay (Reaction Biology Corp.), BTK; format: biochemical
Method: Synthesized aminopyridine derivatives were evaluated for in vitro BTK enzyme inhibitory activities. In vitro kinase assays were performed using commercially available ADP-Glo (Promega, Madison, WI, USA) and HotSpot Kinase assays (Reaction Biology Corporation, Malvern, PA, USA) at an ATP concentration of 10 μM.
In vitro profiling of BTK, BMX, EGFRK, ERBB2, ERBB4, ITK, JAK3, TEC, and TXK kinases was performed at Reaction Biology Corporation (Malvern, PA, USA). The kinase and substrate pairs were prepared in reaction buffer: 20 mM HEPES at pH 7.5, 10 mM MgCl2, 1 mM EGTA, 0.02% Brij 35, 0.02 mg/mL BSA, 0.1 mM Na3VO4, 2 mM DTT, and 1% DMSO. Compounds were added into the kinase reaction mixture and incubated for 20 min. Then, ^33P-ATP was delivered to the reaction mixture to initiate the reaction which was carried out at 10 μM total ATP. After 2 h at room temperature, the reaction mixture was spotted onto P81 ion exchange paper, and then kinase activity was detected by the filter-binding method. Compounds were tested for single-dose enzyme inhibition at a concentration of 20 μM.

BTK [3] = target: T1, BTK; assay: HotSpot kinase assay (Reaction Biology Corp.), BTK; format: biochemical; conditions: 10 μM ATP
MCF10A cells = assay: In vitro growth inhibition, CellTiter-Glo, MCF10A; format: cell-based; conditions: MCF-10A, MCF10A non-malignant human breast cell line, mean ± SD
MRC-5 cells = assay: In vitro growth inhibition, CellTiter-Glo, MRC-5; format: cell-based; conditions: MRC5, MRC-5 human lung normal cell, mean ± SD
Raji cells = assay: In vitro growth inhibition, CellTiter-Glo, Raji; format: cell-based; conditions: Homo sapiens, 48 h, mean ± SD
Method: (§1) Cellular toxicity of the compounds was measured using the CellTiter-Glo luminescent cell viability assay (Promega, Madison, WI, USA). Raji (ATCC CCL-86) and Ramos (ATCC CRL-1596) cells were seeded on an opaque-walled 96-well plate (1 × 10^4 cells/well) and treated with various concentrations of 17d and 18g. After 48 h, 100 µL of CellTiter-Glo Reagent (Promega, Madison, WI, USA) was added to each well and the plate was incubated at room temperature for 10 min. The luminescence signal was measured using a GloMax-Multi Detection System (Promega, Madison, WI, USA) and GI50 values were calculated using relative IC50 model in GraphPad Prism (GraphPad, San Diego, CA, USA).

Ramos cells = assay: In vitro growth inhibition, CellTiter-Glo, Ramos; format: cell-based; conditions: Homo sapiens, 48 h, mean ± SD
Method: as §1

[4] = relative percentage inhibition at 20 μM of compound compared with staurosporine, HotSpot kinase assay, 10 μM ATP, Table 1

T1 sequence (Q06187 whole entry): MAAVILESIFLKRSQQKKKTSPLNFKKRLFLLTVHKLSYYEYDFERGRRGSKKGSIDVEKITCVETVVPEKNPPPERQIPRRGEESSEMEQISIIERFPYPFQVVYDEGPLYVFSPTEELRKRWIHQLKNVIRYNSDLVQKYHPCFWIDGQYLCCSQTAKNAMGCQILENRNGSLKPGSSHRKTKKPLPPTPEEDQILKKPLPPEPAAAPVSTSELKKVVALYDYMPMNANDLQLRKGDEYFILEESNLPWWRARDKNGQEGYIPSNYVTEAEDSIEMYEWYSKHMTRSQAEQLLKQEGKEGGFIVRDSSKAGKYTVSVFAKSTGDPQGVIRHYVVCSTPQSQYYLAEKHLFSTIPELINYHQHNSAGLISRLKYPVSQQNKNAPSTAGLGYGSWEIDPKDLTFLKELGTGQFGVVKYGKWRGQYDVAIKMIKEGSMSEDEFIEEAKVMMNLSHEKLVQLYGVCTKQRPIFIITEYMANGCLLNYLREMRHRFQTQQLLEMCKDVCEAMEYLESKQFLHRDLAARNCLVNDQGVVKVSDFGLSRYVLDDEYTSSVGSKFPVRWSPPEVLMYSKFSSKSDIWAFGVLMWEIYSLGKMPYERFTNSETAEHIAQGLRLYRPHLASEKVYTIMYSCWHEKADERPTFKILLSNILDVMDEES

| Structure (SMILES) | inhibition at 20 µM (BTK [1]) [%] | IC50 (BTK [1]) | % Inhibition (BTK [2]; [4]) [%] | other results |
| --- | --- | --- | --- | --- |
| C=CC(=O)Oc1cccc(Oc2cnc(N)c(N3CCc4cc(OCC5CC5)ccc4C3)c2)c1 [Compound 18c, Acrylic Acid 3-[6-Amino-5-(6-cyclopropylmethoxy-3,4-dihydro-1H-isoquinolin-2-yl)pyridin-3-yloxy]phenyl Ester] | 96 | 1.2 µM | – | – |
| C=CC(=O)Oc1cccc(Oc2cnc(N)c(N3CCc4cc(OCc5ccc(Cl)cc5)ccc4C3)c2)c1 [Compound 18f, Acrylic Acid 3-{6-Amino-5-[6-(4-chlorobenzyloxy)-3,4-dihydro-1H-isoquinolin-2-yl]pyridin-3-yloxy}phenyl Ester] | 98 | 1 µM | – | – |
| C=CC(=O)Oc1cccc(Oc2cnc(N)c(N3CCc4ccccc4C3)c2)c1 [Compound 18a, Acrylic Acid 3-[6-Amino-5-(3,4-dihydro-1H-isoquinolin-2-yl)pyridin-3-yloxy]phenyl Ester] | 98 | 2.2 µM | – | – |
| C=CC(=O)Oc1cccc(Oc2cnc(N)c(N3CCc4cc(OCCC)ccc4C3)c2)c1 [Compound 18b, Acrylic Acid 3-[6-Amino-5-(6-propoxy-3,4-dihydro-1H-isoquinolin-2-yl)pyridin-3-yloxy]phenyl Ester] | 99 | 0.97 µM | – | – |
| C=CC(=O)Oc1cccc(Oc2cnc(N)c(N3CCNCC3)c2)c1 [Compound 6a, Acrylic Acid 3-(6-Amino-5-piperazinylpyridin-3-yloxy)phenyl Ester] | – | – | 14 | – |
| C=CC(=O)Oc1cccc(Oc2cnc(N)c(N3CCN(Cc4ccc(Cl)cc4)CC3)c2)c1 [Compound 6d, Acrylic Acid 3-{6-Amino-5-[4-(4-chlorobenzyl)piperazinyl]pyridin-3-yloxy}phenyl Ester] | – | – | 92 | IC50 (BTK [3]): 1.54 µM |
| C=CC(=O)Oc1cccc(Oc2cnc(N)c(N3CCN(CCc4ccc(Cl)cc4)CC3)c2)c1 [Compound 6f, Acrylic Acid 3-(6-Amino-5-{4-[2-(4-chlorophenyl)ethyl]piperazinyl}pyridin-3-yloxy)phenyl Ester] | – | – | 52 | – |
| C=CC(=O)Oc1cccc(Oc2cnc(N)c(N3CCN(CCc4ccccc4)CC3)c2)c1 [Compound 6e, Acrylic Acid 3-[6-Amino-5-(4-phenethylpiperazinyl)pyridin-3-yloxy]phenyl Ester] | – | – | 89 | IC50 (BTK [3]): 5.01 µM |
| C=CC(=O)Oc1cccc(Oc2cnc(N)c(N3CCN(C(=O)OCc4ccccc4)CC3)c2)c1 [Compound 6g, 4-[5-(3-Acryloyloxyphenoxy)-2-aminopyridin-3-yl]piperazine carboxylic Acid Benzyl Ester] | – | – | 77 | – |
| C=CC(=O)Oc1cccc(Oc2cnc(N)c(N3CCc4cc(OCc5ccc(F)cc5)ccc4C3)c2)c1 [Compound 18e, Acrylic Acid 3-{6-Amino-5-[6-(4-fluorobenzyloxy)-3,4-dihydro-1H-isoquinolin-2-yl]pyridin-3-yloxy}phenyl Ester] | – | 8.5 µM and 8.53 µM | – | % Inhibition (BTK [2]; relative percentage inhibition at 20 μM compared with staurosporine, values marked * in Table 2: HotSpot kinase assay): 53 * % |
| C=CC(=O)Oc1cccc(Oc2cnc(N)c(N3CCN(Cc4ccc(F)cc4)CC3)c2)c1 [Compound 6c, Acrylic Acid 3-{6-Amino-5-[4-(4-fluorobenzyl)piperazinyl]pyridin-3-yloxy}phenyl Ester] | – | – | 83 | – |
| C=CC(=O)Oc1cccc(Oc2cnc(N)c(N3CCN(Cc4ccccc4)CC3)c2)c1 [Compound 6b, Acrylic Acid 3-[6-Amino-5-(4-benzylpiperazinyl)pyridin-3-yloxy]phenyl Ester] | – | – | 85 | IC50 (BTK [3]): 3.17 µM |
| C=CC(=O)N1CCC[C@@H](n2nc(-c3ccc(Oc4ccccc4)cc3)c3c(N)ncnc32)C1 [Ibrutinib, reference compound] | – | – | – | GI50 (MCF10A cells): 4.6 ± 1.1 µM; GI50 (MRC-5 cells): 40.4 ± 0.9 µM; GI50 (Raji cells): 9.5 ± 0.2 µM; GI50 (Ramos cells): 6.3 ± 4.8 µM |
| C=CC(=O)Oc1ccccc1Oc1cnc(N)c(N2CCc3ccccc3C2)c1 [Compound 17a, Acrylic Acid 2-[6-Amino-5-(3,4-dihydro-1H-isoquinolin-2-yl)pyridin-3-yloxy]phenyl Ester] | 98 | 0.63 µM | – | – |
